According to article PMC8373216, “Development and Preclinical Evaluation of New Inhaled Lipoglycopeptides for the Treatment of Persistent Pulmonary Methicillin-Resistant Staphylococcus aureus Infections” (Antimicrobial Agents and Chemotherapy, 2021):
≈ marks a conversion by molar mass, not a printed value. Read-outs that look alike come from different tables or passages of the source.

Assays:
[1] = Single-dose nebulized nose-only inhalation PK in healthy rats; format: in vivo, rat; details: male, Sprague Dawley, rat, in vivo
Description: Rats were acclimated in the study facility for approximately 1 week prior to study start. Ten or eleven rats per cohort were loaded into the chamber at the time of dosing. […] An additional airflow set to 6 liters/min was admixed with the nebulizer output to further direct the test articles to the animals. […] The remaining port on the chamber was fit with an aerosol sampling filter for dose determination over a 5 min sampling period. The average dose delivered to the nose of each animal was calculated using an algorithm that was previously described ([49]). […] Animals were euthanized for collection of whole lungs and plasma at time points ranging from immediate postdose (IPD; approximately 30 min after dosing for nebulization) to 168 h postdose (7 days). Drugs were extracted from tissues using customized protein precipitation methods with an appropriate internal standard for each compound and transferred for analysis by LC-MS/MS (Sciex API4500 or API6500+ mass spectrometer [Sciex, Framingham, MA]). GraphPad Prism (La Jolla, CA) was used for statistical analyses and data plotting. […] The data were applied to a noncompartmental analysis after extravascular dosing input and fit to a linear up/log down model. Statistical analysis of in vitro intracellular and biofilm activity was based on a two-way ANOVA with a Bonferroni post test. In vivo statistical analysis was based on the Kolmogorov-Smirnov test.

[2] = tested on: MRSA ATCC BAA 1556 (USA300); test: In-house broth microdilution MIC screening; format: cell-based, Staphylococcus aureus; details: Staphylococcus aureus; broth microdilution; read-out: MIC Value, MRSA ATCC BAA 1556
MSSA ATCC 29213 = test: In-house broth microdilution MIC screening; format: cell-based; details: Staphylococcus aureus; broth microdilution; read-out: MIC Value, MSSA ATCC 29213
[3] = format: physicochemical; details: pH 8
Description: 40 to the primary metabolite.
41 percent degradation is defined as follows:
[LLLLPPLL ] + [MMPPPPDDMM DDMMDDPPPP ]
45 Enzymes studied include :
108 Table S1: Enzyme hydrolysis of RV62 and RV94 was measured as a function of time in PBS (pH 8) at 37
109 °C. Control samples in the absence of enzyme were included as […]. Samples were analyzed
110 by HPLC detecting the parent RV derivative (RV62 or RV94).
RV Percent RV derivative remaining in HPLC chromatograph, % […]

In the case of CCCCCCCCCCCC(=O)NCCNC1(C)CC(OC2C(Oc3c4cc5cc3Oc3ccc(cc3Cl)C(O)C3NC(=O)C(NC(=O)C5NC(=O)C(CC(N)=O)NC(=O)C(NC(=O)C(CC(C)C)NC)C(O)c5ccc(c(Cl)c5)O4)c4ccc(O)c(c4)-c4c(O)cc(O)cc4C(C(=O)O)NC3=O)OC(CO)C(O)C2O)OC(C)C1O (stereo not drawn) [RV62], the Pulmonary dose [1] is reported as 0.15 mg/kg, the “Time to full conversion to hydrolysis product in the lung” value [1] is reported as at most 24 h and the “Drug lung level at 120 h” value ([1]; 120 h) is reported as 0.1%. For the same compound, the “Primary hydrolysis byproduct lung level at 120 h” value ([1]; 120 h) was 107%, the Kp ([1]; inhaled or intranasal) was 1550 and the “Lung AUC0-∞” value ([1]; inhaled or intranasal) was 317 µg·h/g. For the same compound, the “Lung Cmax” value ([1]; inhaled or intranasal) was 30 µg/g, the “Lung t1/2” value ([1]; inhaled or intranasal) was 11 h and the “Plasma Cmax” value ([1]; inhaled or intranasal) was 20 ng/mL. For the same compound, the MIC [2] was 0.016 µg/mL (≈ 9.55 nM), the MIC (MSSA ATCC 29213) was 0.016 µg/mL (≈ 9.55 nM) and the “Percent RV derivative remaining in HPLC chromatograph” value (“Percent RV derivative remaining” for short) ([3]; 0 h) was 97.14%. For the same compound, the “Percent RV derivative remaining” value ([3]; 0.5 h) was 97.14%, the “Percent RV derivative remaining” value ([3]; 1 h) was 97.38% and the “Percent RV derivative remaining” value ([3]; 2 h) was 97.07%.
